Assay results: patent US9023865B2, “Compounds that are ERK inhibitors” (Merck Sharp & Dohme Corp., priority 2011, dated 2015)

Each compound was assayed against Active Human ERK2 (hERK2) (Homo sapiens (Human), UniProt P28482) (assay: Active Human ERK2 (hERK2) Activity Assay (IMAP-FP)). Conditions: phosphorylated active hERK2, 30 μM ATP; average; read-out: ERK 2 Human average IC50.
Type: biochemical
Method in brief: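 Phosphorylation by activated human ERK2 (0.5 nM) at 30 μM ATP, peptide substrate 900 nM unlabeled with 80 nM labeled, proceeds 60 min. IMAP beads stop the reaction; after 60 min equilibration, product is measured by fluorescence polarization.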

Active Human ERK2 (hERK2), sequence (P28482 whole entry): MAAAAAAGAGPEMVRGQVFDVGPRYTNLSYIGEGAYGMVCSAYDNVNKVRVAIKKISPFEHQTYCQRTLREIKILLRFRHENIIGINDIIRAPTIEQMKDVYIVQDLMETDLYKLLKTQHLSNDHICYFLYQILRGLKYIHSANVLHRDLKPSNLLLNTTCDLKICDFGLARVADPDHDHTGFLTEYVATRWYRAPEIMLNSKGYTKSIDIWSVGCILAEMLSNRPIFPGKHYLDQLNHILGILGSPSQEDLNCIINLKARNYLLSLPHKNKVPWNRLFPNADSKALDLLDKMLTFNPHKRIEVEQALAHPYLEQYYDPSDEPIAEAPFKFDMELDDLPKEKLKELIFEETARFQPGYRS

Compound	IC50 [nM]
Cc1cc(-c2n[nH]c3cc(NC(=O)Nc4ccccc4)ncc23)ccn1 [Example 61, 1-[3-(2-methylpyridin-4-yl)-1H-pyrazolo[4,3-c]pyridin-6-yl]-3-phenylurea]	127
Cc1cc(-c2n[nH]c3cc(NC(=O)NCCC4=CCCC4)ncc23)ccn1 [Example 212]	1.76
C[C@@H](NC(=O)Nc1cc2[nH]nc(-c3ccc4nn(C)cc4c3)c2cn1)c1ccccc1 [Example 651]	0.223
COC(=O)[C@@H](C)NC(=O)Nc1cc2[nH]nc(-c3ccnc(C)c3)c2cn1 [Example 461]	31.2
COC[C@@H](NC(=O)Nc1ncc2c(-c3ccnc(F)c3)n[nH]c2c1F)c1ccccc1 [Example 543]	0.272
CC[C@H](NC(=O)Nc1cc2[nH]nc(-c3ccnc(C)c3)c2cn1)c1ccc(Cl)cc1 [Example 413]	39.2
C[C@@H](NC(=O)Nc1cc2[nH]nc(-c3ccn4ncnc4c3)c2cn1)c1ccccc1 [Example 294]	0.665
Cc1cncc(-c2n[nH]c3cc(NC(=O)N[C@H](C)c4ccc(F)cc4)ncc23)c1 [Example 308]	1.8
Cc1cc(-c2n[nH]c3cc(NC(=O)NC4CCNC4)ncc23)ccn1 (centres unmarked) [Example 579]	10.6
Cc1cc(-c2n[nH]c3c(F)c(NC(=O)NCc4ccccc4)ncc23)ccn1 [Example 536]	1.14
Cc1cc(-c2n[nH]c3cc(NC(=O)N[C@H]4CN(C)C[C@@H]4c4ccccc4)ncc23)ccn1 [Example 182]	18.8
Cc1cc(-c2n[nH]c3cc(NC(=O)NCC4CCO4)ncc23)ccn1 (centres unmarked) [Example 484]	376
Cc1cc(-c2n[nH]c3cc(NC(=O)NCc4ncon4)ncc23)ccn1 [Example 426]	5.67
Cc1cc(-c2n[nH]c3cc(NC(=O)N[C@H]4CN(C)C[C@@H]4c4ccccc4C(F)(F)F)ncc23)ccn1 [Example 178, 1-((3R,4S)-1-Methyl-4-(2-(trifluoromethyl)phenyl)pyrrolidin-3-yl)-3-(3-(2-methylpyridin-4-yl)-1H-pyrazolo[4,3-c]pyridin-6-yl)urea]	0.527
C[C@@H](NC(=O)Nc1cc2[nH]nc(CC#N)c2cn1)c1ccccc1 [Example 559, (R)-1-(3-(cyanomethyl)-1H-pyrazolo[4,3-c]pyridin-6-yl)-3-(1-phenylethyl)urea]	14.5
Cc1cc(-c2n[nH]c3c(Cl)c(NC(=O)N[C@H](C)c4ccccc4)ncc23)ccn1 [Example 571, (R)-1-(7-chloro-3-(2-methylpyridin-4-yl)-1H-pyrazolo[4,3-c]pyridin-6-yl)-3-(1-phenylethyl)urea]	3.07
O=C(Nc1cc2[nH]nc(C3CC3)c2cn1)N[C@@H]1CCOc2ccccc21 [Example 154]	70
C[C@@H](NC(=O)Nc1cc2[nH]nc(-c3cncnc3)c2cn1)c1ccc(F)cc1 [Example 671]	2.33
O=C(Nc1cc2[nH]nc(C(F)F)c2cn1)NC1Cc2ccccc2C1O (centres unmarked) [Example 696]	175
Cc1cc(-c2n[nH]c3cc(NC(=O)NCc4ccsn4)ncc23)ccn1 [Example 476]	0.587
CC[C@@H](NC(=O)Nc1cc2[nH]nc(-c3ccnc(C)c3)c2cn1)c1ccccn1 [Example 218]	0.487
C/C=C/c1n[nH]c2cc(NC(=O)N[C@H](C)c3ccccc3)ncc12 [Example 67, 1-[(1R)-1-phenylethyl]-3-{3-[(1E)-prop-1-en-1-yl]-1H-pyrazolo[4,3-c]pyridin-6-yl}urea]	0.428
COCCNC(=O)Nc1cc2[nH]nc(-c3ccc(C#N)cc3)c2cn1 [Example 624, 1-[3-(4-Cyanophenyl)-1H-pyrazolo[4,3-c]pyridin-6-yl]-3-(2-methoxyethyl)urea]	4.38

Compound	IC50 [nM]
Cc1cc(-c2n[nH]c3cc(NC(=O)NCC4CCC4)ncc23)ccn1 [Example 574]	1.41
Cc1cc(-c2n[nH]c3cc(NC(=O)NC4COc5ccccc5C4)ncc23)ccn1 (centres unmarked) [Example 467]	1.25
O=C(Nc1cc2[nH]nc(C3CC3)c2cn1)NC1CCCOc2ccccc21 (centres unmarked) [Example 153]	2.28
CO[C@@H](C)CNC(=O)Nc1cc2[nH]nc(-c3ccc(F)cc3)c2cn1 [Example 635]	0.873
Cc1cc(-c2n[nH]c3cc(NC(=O)N[C@H](C)c4ccc(F)cn4)ncc23)ccn1 [Example 503]	0.858
Cc1cc(-c2n[nH]c3cc(NC(=O)NCc4ccc(Cl)cc4Cl)ncc23)ccn1 [Example 443]	11.8
COc1cncc(-c2n[nH]c3cc(NC(=O)N[C@H](C)c4ccc(F)cc4)ncc23)n1 [Example 251]	5.26
Cc1cc(-c2n[nH]c3cc(NC(=O)NCc4csc(C)n4)ncc23)ccn1 [Example 43, 1-[3-(2-methylpyridin-4-yl)-1H-pyrazolo[4,3-c]pyridin-6-yl]-3-[(2-methyl-1,3-thiazol-4-yl)methyl]urea]	0.934
Cc1cc(-c2n[nH]c3cc(NC(=O)N[C@@H]4CN(CC(F)(F)F)C[C@H]4c4ccccc4)ncc23)ccn1 [Example 330]	3.06
Cc1cc(-c2n[nH]c3cc(NC(=O)NC4CCOC(C)(C)C4)ncc23)ccn1 (centres unmarked) [Example 196]	23.6
C[C@@H](NC(=O)Nc1cc2[nH]nc(-c3cnn(C)c3)c2cn1)c1ccc(F)cc1 [Example 259]	0.469
Cc1cc(-c2n[nH]c3cc(NC(=O)NCC4CC(C)(C)OC(C)(C)C4)ncc23)ccn1 [Example 370]	1.45
Cc1cc(-c2n[nH]c3cc(NC(=O)NCc4ccno4)ncc23)ccn1 [Example 435]	1.08
C[C@@H](NC(=O)Nc1cc2[nH]nc(-c3cnn(CC(C)(C)O)c3)c2cn1)c1ccccc1 [Example 639]	0.535
C[C@@H](NC(=O)Nc1cc2[nH]nc(C(=O)NCCC3(O)CCCC3)c2cn1)c1ccccc1 [Example 126]	8.33
COC[C@H](NC(=O)Nc1cc2[nH]nc(-c3ccnc(C)c3)c2cn1)c1ccccn1 [Example 415]	20
Cc1cc(-c2n[nH]c3cc(NC(=O)N[C@@H]4CCSc5ccccc54)ncc23)ccn1 [Example 264]	2.08
Cc1cc(-c2n[nH]c3cc(NC(=O)NC4c5ccccc5CC4O)ncc23)ccn1 (centres unmarked) [Example 332]	1.34
Cc1cc(-c2n[nH]c3cc(NC(=O)NCc4nnc(C)s4)ncc23)ccn1 [Example 474]	33.7
Cc1cc(-c2n[nH]c3cc(NC(=O)NCc4ncccc4F)ncc23)ccn1 [Example 447]	2.62
C[C@@H](NC(=O)Nc1cc2[nH]nc(C3CCC3)c2cn1)c1ccccc1 [Example 145]	2.44
C[C@@H](NC(=O)Nc1cc2[nH]nc(C(C)(C)O)c2cn1)c1ccccc1 [Example 611]	122
Cc1cc(-c2n[nH]c3cc(NC(=O)NCc4ccc5ccccc5c4)ncc23)ccn1 [Example 45, 1-[3-(2-methylpyridin-4-yl)-1H-pyrazolo[4,3-c]pyridin-6-yl]-3-(naphthalen-2-ylmethyl)urea]	2.74

Compound	IC50 [nM]
COC[C@@H](NC(=O)Nc1cc2[nH]nc(-c3cc(C)on3)c2cn1)c1ccccc1 [Example 683]	4.36
C[C@@H](NC(=O)Nc1cc2[nH]nc(-c3ccn(C4COC4)n3)c2cn1)c1ccccc1 [Example 638]	8.99
Cc1cc(-c2n[nH]c3cc(NC(=O)NCc4cnsn4)ncc23)ccn1 [Example 425]	0.323
Cc1cc(-c2n[nH]c3cc(NC(=O)NC(CO)C(F)(F)F)ncc23)ccn1 (centres unmarked) [Example 194]	13.5
C[C@@H](NC(=O)Nc1cc2[nH]nc(C3CCC3)c2cn1)c1ccccn1 [Example 149]	72.1
Cc1cc(-c2n[nH]c3cc(NC(=O)N[C@H](CO)c4ccc(F)cc4)ncc23)ccn1 [Example 346]	88.2
Cc1cc(-c2n[nH]c3cc(NC(=O)NCc4ncccc4C)ncc23)ccn1 [Example 480]	1.22
Cc1cc(-c2n[nH]c3cc(NC(=O)N[C@H](C)c4ccncc4)ncc23)ccn1 [Example 236]	1.51
COC[C@@H](NC(=O)Nc1cc2[nH]nc(C3CC3)c2cn1)c1ccccc1 [Example 160]	1.38
COC[C@@H](NC(=O)Nc1cc2[nH]nc(-c3ccn4ncnc4c3)c2cn1)c1ccc(F)cc1 [Example 300]	1.34
Cc1cc(-c2n[nH]c3cc(NC(=O)NC4(c5ccccn5)CCCC4)ncc23)ccn1 [Example 358]	137
Cc1cc(-c2n[nH]c3cc(NC(=O)NCCO)ncc23)ccn1 [Example 573]	7.22
O=C(NCc1ccccc1)Nc1cc2[nH]nc(C3CC3)c2cn1 [Example 142]	17.4
Cc1cc(-c2n[nH]c3c(F)c(NC(=O)NC(C)c4ccccn4)ncc23)ccn1 (centres unmarked) [Example 225]	2.45
COc1cccc(F)c1CNC(=O)Nc1cc2[nH]nc(-c3ccnc(C)c3)c2cn1 [Example 485]	0.307
Cc1cc(-c2n[nH]c3cc(NC(=O)NC=C4CC4)ncc23)ccn1 [Example 38, 1-(cyclopropylidenemethyl)-3-[3-(2-methylpyridin-4-yl)-1H-pyrazolo[4,3-c]pyridin-6-yl]urea]	481
Cc1cc(-c2n[nH]c3cc(NC(=O)N[C@H]4CN(C)C[C@@H]4c4ccccc4C)ncc23)ccn1 [Example 207]	0.537
Cc1cc(-c2n[nH]c3cc(NC(=O)NC4CCCC(Oc5cccc(F)c5)C4)ncc23)ccn1 (centres unmarked) [Example 648]	28.2
COCCN(C)c1ncc(-c2n[nH]c3cc(NC(=O)N[C@H](C)c4ccccc4)ncc23)cn1 [Example 293]	24.3
Cc1cc(-c2n[nH]c3cc(NC(=O)NCc4ccccc4OC(F)F)ncc23)ccn1 [Example 441]	0.309
Cc1cc(-c2n[nH]c3cc(NC(=O)NCc4c(F)cc(F)cc4F)ncc23)ccn1 [Example 519]	0.962
Cc1cc(-c2n[nH]c3cc(NC(=O)N[C@H](C)c4ccccn4)ncc23)ccn1 [Example 177]	0.914
Cc1cc(-c2n[nH]c3cc(NC(=O)NC(CCO)c4ccccc4)ncc23)ccn1 (centres unmarked) [Example 334]	0.333

Same assay, conditions: read-out: AERK2 IC50 (Active human ERK2 Activity Assay)

Compound	IC50 [nM]
C/C=C/c1n[nH]c2cc(NC(=O)N[C@H](C)c3ccccc3)ncc12 [Example 67, 1-[(1R)-1-phenylethyl]-3-{3-[(1E)-prop-1-en-1-yl]-1H-pyrazolo[4,3-c]pyridin-6-yl}urea]	0.2 to 1.7
Cc1cc(-c2n[nH]c3cc(NC(=O)NCc4csc(C)n4)ncc23)ccn1 [Example 43, 1-[3-(2-methylpyridin-4-yl)-1H-pyrazolo[4,3-c]pyridin-6-yl]-3-[(2-methyl-1,3-thiazol-4-yl)methyl]urea]	0.2 to 1.7
